Measurements taken from US10501449B2 (priority 2018, dated 2019).

Key:
hROMK (human Kir1.1) = hROMK (human Kir1.1) (Homo sapiens (Human), UniProt P48048); assay: cell-based; settings: CHO T-Rex hROMK stable cell line; thallium flux; 10-point concentration response curve; read-out: Human ROMK Th Flux IC50
hERG channels = hERG channels (Homo sapiens (Human), UniProt Q12809); assay: hERG Manual Patch Clamp Assay; assay type: cell-based; settings: human, HEK 293 cells stably expressing hERG channels, pH 7.4, 1 uM, read-out: hERG EP % Inh @ 1 uM
Sequence of hERG channels (Q12809 whole entry): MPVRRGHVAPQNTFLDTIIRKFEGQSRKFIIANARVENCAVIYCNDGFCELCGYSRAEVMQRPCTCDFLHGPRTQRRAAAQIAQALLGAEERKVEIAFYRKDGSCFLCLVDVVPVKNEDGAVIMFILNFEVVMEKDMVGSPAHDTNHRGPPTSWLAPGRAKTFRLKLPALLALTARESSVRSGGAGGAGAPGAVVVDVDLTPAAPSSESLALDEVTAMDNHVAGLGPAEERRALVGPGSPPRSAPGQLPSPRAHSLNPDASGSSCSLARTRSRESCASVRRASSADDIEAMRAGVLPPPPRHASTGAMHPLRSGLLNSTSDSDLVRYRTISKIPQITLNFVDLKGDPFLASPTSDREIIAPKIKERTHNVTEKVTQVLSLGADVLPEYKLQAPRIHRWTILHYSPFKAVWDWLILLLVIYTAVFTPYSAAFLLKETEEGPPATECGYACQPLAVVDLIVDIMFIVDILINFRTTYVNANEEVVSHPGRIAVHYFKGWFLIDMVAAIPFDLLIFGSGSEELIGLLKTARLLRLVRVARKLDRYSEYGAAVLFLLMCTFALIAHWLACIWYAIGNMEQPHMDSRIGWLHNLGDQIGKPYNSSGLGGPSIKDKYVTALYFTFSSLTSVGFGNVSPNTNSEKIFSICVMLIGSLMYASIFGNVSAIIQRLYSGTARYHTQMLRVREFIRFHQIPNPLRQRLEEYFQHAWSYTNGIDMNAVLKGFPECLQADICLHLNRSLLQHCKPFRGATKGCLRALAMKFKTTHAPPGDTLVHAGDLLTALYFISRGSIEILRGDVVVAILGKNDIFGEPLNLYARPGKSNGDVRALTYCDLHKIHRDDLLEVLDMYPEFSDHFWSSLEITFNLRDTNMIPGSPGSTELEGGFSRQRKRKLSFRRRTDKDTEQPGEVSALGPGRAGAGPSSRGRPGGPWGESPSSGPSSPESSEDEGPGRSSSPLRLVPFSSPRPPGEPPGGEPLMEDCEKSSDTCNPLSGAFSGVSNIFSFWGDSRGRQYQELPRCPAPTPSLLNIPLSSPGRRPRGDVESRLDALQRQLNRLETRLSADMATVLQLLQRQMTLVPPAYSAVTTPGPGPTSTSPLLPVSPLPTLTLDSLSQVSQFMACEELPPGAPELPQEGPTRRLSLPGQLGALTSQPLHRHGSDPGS
Method: hERG electrophysiology assay: The experimental compounds were assessed for hERG activity on HEK 293 cells stably expressing hERG channels using patch clamp technique. Coverslips plated with hERG expressing cells were placed in the experimental chamber and were perfused with a solution composed of (in mM): 140 NaCl, 4 KCl, 1.8 CaCl2, 1 MgCl2, 10 Glucose, 10 HEPES (pH 7.4, NaOH) at room temperature. Borosilicate patch pipettes had tip resistances of 2-4 Mohms when filled with an internal solution containing: 130 KCl, 1 MgCl2, 1 CaCl2, 10 EGTA, 10 HEPES, 5 ATP-K2 (pH 7.2, KOH). The cells were clamped at −80 mV in whole cell configuration using an Axopatch 200B (Axon instruments, Union City, Calif.) patch clamp amplifier controlled by pClamp (Axon instruments) software. Upon formation of a gigaseal, the following voltage protocol was repeatedly (0.05 Hz) applied to record tail currents: depolarization step from −80 mV to +20 mV for 2 seconds followed by a hyperpolarization step to −65 mV (3 seconds) to elicit tail currents. Compounds were applied after stabilization of tail current. First, tail currents were recorded in presence of extracellular solution alone (control) and subsequently, in extracellular solution containing increasing compound concentrations. Each compound concentration was applied for 2-5 minutes. The percentage inhibition at each concentration was calculated as reduction in peak tail current with respect to the peak tail current recorded in the presence of control solution. Data analysis was performed in a custom made template. The percent inhibitions at different concentrations were plotted to obtain a concentration response curve, which was subsequently fitted with a four parameter equation to calculate hERG IC50 value.

Sequence of hROMK (human Kir1.1) (P48048 whole entry): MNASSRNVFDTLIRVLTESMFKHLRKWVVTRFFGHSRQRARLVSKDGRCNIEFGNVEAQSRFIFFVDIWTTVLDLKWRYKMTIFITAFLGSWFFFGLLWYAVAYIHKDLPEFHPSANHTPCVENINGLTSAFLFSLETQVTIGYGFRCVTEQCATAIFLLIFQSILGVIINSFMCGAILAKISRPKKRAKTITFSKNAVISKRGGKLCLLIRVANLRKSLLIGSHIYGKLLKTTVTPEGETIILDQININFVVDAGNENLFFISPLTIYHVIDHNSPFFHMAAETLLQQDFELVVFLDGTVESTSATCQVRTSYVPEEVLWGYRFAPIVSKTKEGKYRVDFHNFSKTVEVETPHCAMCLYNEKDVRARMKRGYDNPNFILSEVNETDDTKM

Compound `Cc1cc(-n2cc(CN3CCO[C@H](c4ccc5c(c4C)COC5=O)C3)cn2)ccc1C#N` [Example 46-I, (R)-2-methyl-4-(4-((2-(4-methyl-1-oxo-1,3-dihydroisobenzofuran-5-yl)morpholino)methyl)-1H-pyrazol-1-yl) benzonitrile] has an IC50 (hROMK (human Kir1.1)) of 0.026 µM and an inhibition at 1 µM (hERG channels) of 43%.

`COc1cc(-n2cc(CN3CC[C@@H](O)[C@H](c4ccc5c(c4C)COC5=O)C3)cn2)ncc1C#N` [Example 112-I, 6-(4-(((3R,4R)-4-hydroxy-3-(4-methyl-1-oxo-1,3-dihydroisobenzofur-an-5-yl)piperidin-1-yl)methyl)-1H-pyrazol-1-yl)-4-methoxynicotinonit-rile] gave an IC50 (hROMK (human Kir1.1)) of 0.018 µM and an inhibition at 1 µM (hERG channels) of 22%.

For `Cc1c([C@@H]2CN(Cc3cnn(-c4cccc(N5CCOC5=O)n4)c3)C[C@H](C)N2)ccc2c1COC2=O` [Example 249-I, 3-(6-(4-(((3S,5R)-3-methyl-5-(4-methyl-1-oxo-1,3-dihydroisobenzofuran-5-yl)piperazin-1-yl)methyl)-1H-pyrazol-1-yl)pyridin-2-yl)oxazolidin-2-one], the IC50 (hROMK (human Kir1.1)) was 0.12 µM and the inhibition at 1 µM (hERG channels) was 9.1%.

`Cc1c([C@@H]2CN(Cc3cnn(-c4ccn(C(F)F)c(=O)c4)c3)C[C@H](C)N2)ccc2c1COC2=O` [Example 129-I, 1-(difluoromethyl)-4-(4-(((3S,5R)-3-methyl-5-(4-methyl-1-oxo-1,3-dihydroisobenzofuran-5-yl)piperazin-1-yl)methyl)-1H-pyrazol-1-yl)pyridin-2(1H)-one] was tested, and the IC50 (hROMK (human Kir1.1)) was 0.026 µM and the inhibition at 1 µM (hERG channels) was 32%.

Work on `COc1cc(C#N)ccc1-n1cc(CN2CCO[C@H](c3ccc4c(c3C)COC4=O)C2)cn1` [Example 51-I, (R)-3-methoxy-4-(4-((2-(4-methyl-1-oxo-1,3-dihydroisobenzofuran-5-yl)morpholino)methyl)-1H-pyrazol-1-yl) benzonitrile] yielded an IC50 (hROMK (human Kir1.1)) of 0.029 µM and an inhibition at 1 µM (hERG channels) of 43%.

In the case of `COc1cc(-n2nnc(CN3CC[C@@H](O)[C@H](c4ccc5c(c4C)COC5=O)C3)n2)ccc1C#N` [Example 272-I, 4-(5-(((3R,4R)-4-hydroxy-3-(4-methyl-1-oxo-1,3-dihydroisobenzofuran-5-yl)piperidin-1-yl)methyl)-2H-tetrazol-2-yl)-2-methoxybenzonitrile], the IC50 (hROMK (human Kir1.1)) is reported as 0.065 µM and the inhibition at 1 µM (hERG channels) is reported as 5.2%.

`Cc1cc(-n2cc(CN3CC(CO)NC(c4ccc5c(c4C)COC5=O)C3)nn2)ncc1C#N` (single isomer, unassigned) [Example 88-III, 6-(4-((3-(hydroxymethyl)-5-(4-methyl-1-oxo-1,3-dihydroisobenzofur-an-5-yl)piperazin-1-yl)methyl)-1H-1,2,3-triazol-1-yl)-4-methylnicotinonitrile] was tested, and the IC50 (hROMK (human Kir1.1)) was 0.036 µM and the inhibition at 1 µM (hERG channels) was 8.3%.

Compound `Cc1cc(-n2cnc(CN3C[C@@H](c4ccc5c(c4C)COC5=O)N[C@@H](C)C3)n2)ncc1C#N` [Example 122-I, 4-methyl-6-(3-(((3S,5R)-3-methyl-5-(4-methyl-1-oxo-1,3-dihydroisobenzofuran-5-yl)piperazin-1-yl)methyl)-1H-1,2,4-triazol-1-yl)nicotinonitrile] has an IC50 (hROMK (human Kir1.1)) of 0.05 µM and an inhibition at 1 µM (hERG channels) of 6.6%.

In the case of `Cc1cc(-n2cc(CN3CC(c4ccc5c(c4C)COC5=O)C(O)C(C)(C)C3)cn2)ncc1C#N` (stereo not shown) [Example 116-I, 6-(4-((4-hydroxy-3,3-dimethyl-5-(4-methyl-1-oxo-1,3-dihydroisobenzofuran-5-yl)piperidin-1-yl)methyl)-1H-pyrazol-1-yl)-4-methylnicotinonitrile], the IC50 (hROMK (human Kir1.1)) is reported as 0.039 µM and the inhibition at 1 µM (hERG channels) is reported as 6.4%.

`COc1nc(-n2cc(CN3C[C@@H](c4ccc5c(c4C)COC5=O)N[C@@H](C)C3)cn2)ccc1C#N` [Example 93-I, 2-methoxy-6-(4-(((3S,5R)-3-methyl-5-(4-methyl-1-oxo-1,3-dihydroisobenzofur-an-5-yl)piperazin-1-yl)methyl)-1H-pyrazol-1-yl)nicotinonitrile] was tested, and the IC50 (hROMK (human Kir1.1)) was 0.044 µM and the inhibition at 1 µM (hERG channels) was 23%.

In the case of `Cc1cc(C#N)ccc1-n1cc(CN2CCO[C@H](c3ccc4c(c3C)COC4=O)C2)cn1` [Example 47-I, (R)-3-methyl-4-(4-((2-(4-methyl-1-oxo-1,3-dihydroisobenzofuran-5-yl)morpholino)methyl)-1H-pyrazol-1-yl) benzonitrile], the IC50 (hROMK (human Kir1.1)) is reported as 0.049 µM and the inhibition at 1 µM (hERG channels) is reported as 49%.

Compound `Cc1c([C@@H]2CN(Cc3cnc(-n4cnc(C#N)c4)s3)CCN2)ccc2c1COC2=O` [Example 21-I, (R)-1-(5-((3-(4-methyl-1-oxo-1,3-dihydroisobenzofuran-5-yl)piperazin-1-yl)methyl)thiazol-2-yl)-1H-imidazole-4-carbonitrile] has an IC50 (hROMK (human Kir1.1)) of 0.093 µM and an inhibition at 1 µM (hERG channels) of 8.5%.

Compound `Cc1cc(-n2cc(CN3CCN[C@H](c4ccc5c(c4C)COC5=O)C3)c(C)n2)ncc1C#N` [Example 145-I, (R)-4-methyl-6-(3-methyl-4-((3-(4-methyl-1-oxo-1,3-dihydroisobenzofuran-5-yl)piperazin-1-yl)methyl)-1H-pyrazol-1-yl)nicotinonitrile] has an IC50 (hROMK (human Kir1.1)) of 0.015 µM and an inhibition at 1 µM (hERG channels) of 25%.

Work on `Cc1c([C@@H]2CN(Cc3cn(-c4ccc(C#N)cn4)cn3)CCO2)ccc2c1COC2=O` [Example 28-I, (R)-6-(4-((2-(4-methyl-1-oxo-1,3-dihydroiso-benzofuran-5-yl)morpho-lino)methyl)-1H-imidazol-1-yl)nicotino-nitrile] yielded an IC50 (hROMK (human Kir1.1)) of 0.085 µM and an inhibition at 1 µM (hERG channels) of 15%.

Compound `Cc1nc(-n2ncc(CN3C[C@H](CO)N[C@H](c4ccc5c(c4C)COC5=O)C3)n2)ncc1C#N` [Example 104-I, 2-(4-(((3R,5R)-3-(hydroxymethyl)-5-(4-methyl-1-oxo-1,3-dihydroisobenzofur-an-5-yl)piperazin-1-yl)methyl)-2H-1,2,3-triazol-2-yl)-4-methylpyrimidine-5-carbonitrile] has an IC50 (hROMK (human Kir1.1)) of 0.036 µM and an inhibition at 1 µM (hERG channels) of 3.4%.

For `COc1cc(N2CC(CN3CCN[C@H](c4ccc5c(c4C)COC5=O)C3)CC2=O)ncc1C#N` (stereo partly drawn) [Example 159-I, 4-methoxy-6-(4-(((R)-3-(4-methyl-1-oxo-1,3-dihydroisobenzofuran-5-yl)piperazin-1-yl)methyl)-2-oxopyrrolidin-1-yl)nicotinonitrile], the IC50 (hROMK (human Kir1.1)) was 0.016 µM and the inhibition at 1 µM (hERG channels) was 21%.

For `Cc1cc(-n2cc(CN3C[C@@H](c4ccc5c(c4C)COC5=O)N[C@@H](C)C3)n(C)c2=O)ccn1` [Example 266-I, 3-methyl-4-(((3S,5R)-3-methyl-5-(4-methyl-1-oxo-1,3-dihydroisobenzofuran-5-yl)piperazin-1-yl)methyl)-1-(2-methylpyridin-4-yl)-1,3-dihydro-2H-imidazol-2-one], the IC50 (hROMK (human Kir1.1)) was 0.036 µM and the inhibition at 1 µM (hERG channels) was 3.1%.

In the case of `Cc1c([C@@H]2CN(Cc3cnn(-c4cc(N5CCOC5=O)ccn4)c3)CCN2)ccc2c1COC2=O` [Example 185-I, (R)-3-(2-(4-((3-(4-methyl-1-oxo-1,3-dihydroisobenzofuran-5-yl)piperazin-1-yl)methyl)-1H-pyrazol-1-yl)pyridin-4-yl)oxazolidin-2-one], the IC50 (hROMK (human Kir1.1)) is reported as 0.1 µM and the inhibition at 1 µM (hERG channels) is reported as 9.6%.

Compound `Cc1cc(-n2cc(CN3CCN[C@H](c4ccc5c(c4C)COC5=O)C3)c(C3CC3)n2)ncc1C#N` [Example 237-I, (R)-6-(3-cyclopropyl-4-((3-(4-methyl-1-oxo-1,3-dihydroisobenzofuran-5-yl)piperazin-1-yl)methyl)-1H-pyrazol-1-yl)-4-methylnicotinonitrile] has an IC50 (hROMK (human Kir1.1)) of 0.069 µM and an inhibition at 1 µM (hERG channels) of 37%.

For `COc1cc(-c2ccc(CN3CCN[C@H](c4ccc5c(c4C)COC5=O)C3)cn2)ncc1C#N` [Example 63-I, (R)-4-methoxy-5′-((3-(4-methyl-1-oxo-1,3-di-hydroisobenzofuran-5-yl)piperazin-1-yl)methyl)-[2,2′-bipyridine]-5-carbonitrile], the IC50 (hROMK (human Kir1.1)) was 0.06 µM and the inhibition at 1 µM (hERG channels) was 23%.

Compound `COc1cc(-c2ccc(CN3CCN[C@H](c4ccc5c(c4C)COC5=O)C3)c(OC)n2)ncc1C#N` [Example 143-I, (R)-4,6′-dimethoxy-5′-((3-(4-methyl-1-oxo-1,3-dihydroisobenzofuran-5-yl)piperazin-1-yl)methyl)-[2,2′-bipyridine]-5-carbonitrile] has an IC50 (hROMK (human Kir1.1)) of 0.063 µM and an inhibition at 1 µM (hERG channels) of 49%.

Work on `Cc1cc(-n2cc(CN3CC[C@@H](O)[C@H](c4ccc5c(c4C)COC5=O)C3)n(C)c2=O)ncc1C#N` [Example 250-I, 6-(4-(((3R,4R)-4-hydroxy-3-(4-methyl-1-oxo-1,3-dihydroisobenzofuran-5-yl)piperidin-1-yl)methyl)-3-methyl-2-oxo-2,3-dihydro-1H-imidazol-1-yl)-4-methylnicotinonitrile] yielded an IC50 (hROMK (human Kir1.1)) of 0.027 µM and an inhibition at 1 µM (hERG channels) of 20%.

With `Cc1cc(-n2cc(CN3CC(F)CC(c4ccc5c(c4C)COC5=O)C3)nn2)ncc1C#N` (single isomer, unassigned) [Example 203-I, 6-(4-((3-fluoro-5-(4-methyl-1-oxo-1,3-dihydroisobenzofuran-5-yl)piperidin-1-yl)methyl)-1H-1,2,3-triaozl-1-yl)-4-methylnicotinonitrile] the IC50 (hROMK (human Kir1.1)) was 0.043 µM and the inhibition at 1 µM (hERG channels) was 16%.

In the case of `COc1c(CN2CCN[C@H](c3ccc4c(c3C)COC4=O)C2)cnn1-c1cc(C)c(C#N)cn1` [Example 6-I, (R)-6-(5-methoxy-4-((3-(4-methyl-1-oxo-1,3-dihydroisobenzofuran-5-yl)piperazin-1-yl)methyl)-1H-pyrazol-1-yl)-4-methylnicotinonitrile], the IC50 (hROMK (human Kir1.1)) is reported as 0.04 µM and the inhibition at 1 µM (hERG channels) is reported as 38%.

With `Cc1cc(-n2cc(CN3CCN[C@H](c4ccc5c(c4C)COC5=O)C3)c(C(F)F)n2)ncc1C#N` [Example 233-I, (R)-6-(3-(difluoromethyl)-4-((3-(4-methyl-1-oxo-1,3-dihydroisobenzofuran-5-yl)piperazin-1-yl)methyl)-1H-pyrazol-1-yl)-4-methylnicotinonitrile] the IC50 (hROMK (human Kir1.1)) was 0.022 µM and the inhibition at 1 µM (hERG channels) was 31%.

With `COc1cc(-c2ncc(CN3CCO[C@H](c4ccc5c(c4C)COC5=O)C3)s2)ncc1C#N` [Example 32-I, (R)-4-methoxy-6-(5-((2-(4-methyl-1-oxo-1,3-dihydroisobenzofuran-5-yl)morpholino)methyl)thiazol-2-yl)nicotino-nitrile] the IC50 (hROMK (human Kir1.1)) was 0.024 µM and the inhibition at 1 µM (hERG channels) was 6.2%.
